Measurements reported in PMC12457078, “Inhibition of soluble epoxide hydrolase in endotoxin induced pig lung injury” (Frontiers in Pharmacology, 2025).

Test system: sEH
Test: oxylipin analysis, epoxide/diol ratios (target engagement)
Assay type: in vivo, pig
Set-up: 14,15-DiHETE: unit not given beside the values; 12,13-DiHOME / 9,10-DiHODE / 11,12-DiHETrE / 14,15-DiHETrE / 10,11-DiHDPE / 19,20-DiHDPE / 13-HODE / 5-HETE / 11-HETE / 12-HETE / 5-HEPE / 9(10)-EpOME / 12(13)-EpOME / EKODE / 11(12)-EpETE: unit not given here
Conditions: for 14,15-DiHETE: high blanks
Protocol: All animals were monitored with pulse oximetry, heart rate, ECG, systemic arterial blood pressure (ABP), pulmonary arterial pressure (PAP), central venous pressure (CVP) temperature, tidal volumes, respiratory rate and end tidal carbon dioxide. At baseline, and at 3 h, 6 h and at the end of the experiment, pulmonary capillary wedge pressure (PCWP) was measured together with arterial and venous blood gas analyses, as well as cardiac output calculations. Routine chemistry, including creatinine, bilirubin, glucose, electrolytes were collected at baseline and at the end of the experiment (Vetscan VS2®, Abaxis, Griesheim, Germany). Blood samples for measurement of AEPU plasma concentrations, as well as oxylipins (i.e., EpETrEs and their DiHETrE corresponding diols as well as related compounds with other polyunsaturated fatty acid precursors), were collected at baseline, 6 h and at the end of the experiment.
This meant nine subjects in each group to achieve 90% power of detecting a difference of this size given α = 0.05. Anticipating that not all experiments would reach completion, we used a sample size of 22. The results were analyzed using SPSS Statistics, version 24 (IBM Corp., Armonk, N.Y., United States). Normality was examined with the Shapiro-Wilk test, together with examination of histograms of data. Continuous variables were compared using Student’s t-test or Mann Whitney U test, as appropriate. Categorical variables were compared using Fischer’s exact test. Statistical significance was set at α < 0.05. Oxylipins with at least 80% of observations above limit of detection at both timepoints were included in pairwise comparisons of ratios and fold-change evaluations where observations below limit of detection (LOD) were substituted with 0.5 x LOD.

[1] = animal 20, time 6, sample Schwein36
[2] = animal 22, time 0, sample Schwein37
[3] = animal 22, time 6, sample Schwein38

SMILES: CCOCCOCCOCCCCCNC(=O)NC12CC3CC(CC(C3)C1)C2 [sEH-i]
- 15-HEPE [1]: <LOD
- 15-HETE [1]: 0.23
- 15-HETrE [1]: 0.10
- 15-oxo-ETE [1]: 0.0224
- 16(17)-EpDPE [1]: <LOD
- 16,17-DiHDPE [1]: 0.0373
- 17(18)-EpETE [1]: <LOD
- 17,18-DiHETE [1]: 0.77
- 17-HDoHE [1]: <LOD
- 19(20)-EpDPE [1]: <LOD
- 19,20-DiHDPE [1]: 0.44
- 20-HETE [1]: 0.0531
- EKODE [1]: 0.20
- LTB4 [1]: 0.26
- PGD2 [1]: <LOD
- PGE2 [1]: <LOD
- PGF2a [1]: 0.69
- Resolvin D1 [1]: <LOD
- Resolvin D2 [1]: <LOD
- TXB2 [1]: 2.57
- 14,15-DiHETE [1]: 0.2599
- 5(6)-EpETrE [2]: <LOD
- 5,6-DiHETrE [2]: <LOD
- 5-HEPE [2]: 0.21
- 5-HETE [2]: 0.81
- 5-oxo-ETE [2]: 0.30
- 7(8)-EpDPE [2]: <LOD
- 7,8-DiHDPE [2]: <LOD
- 8(9)-EpETE [2]: <LOD
- 8(9)-EpETrE [2]: <LOD
- 8,9-DiHETE [2]: 0.0568
- 8,9-DiHETrE [2]: 0.11
- 8-HETE [2]: 0.16
- 9(10)-EpODE [2]: 0.39
- 9(10)-EpOME [2]: 1.58
- 9,10,13-TriHOME [2]: 8.76
- 9,10-DiHODE [2]: 0.80
- 9,10-DiHOME [2]: 5.53
- 9,12,13-TriHOME [2]: 1.91
- 9-HETE [2]: <LOD
- 9-HODE [2]: 22.28
- 9-HOTrE [2]: 2.15
- 9-oxo-ODE [2]: <LOD
- 10(11)-EpDPE [2]: <LOD
- 10,11-DiHDPE [2]: 0.12
- 11(12)-EpETE [2]: 0.09412
- 11(12)-EpETrE [2]: 0.09
- 11,12-DiHETE [2]: 0.09
- 11,12-DiHETrE [2]: 1.52
- 11-HETE [2]: 0.33
- 12(13)-EpODE [2]: 0.93
- 12(13)-EpOME [2]: 3.18
- 12,13-DiHODE [2]: 1.66
- 12,13-DiHOME [2]: 19.80
- 12-HEPE [2]: 0.0755
- 12-HETE [2]: 0.69
- 12-oxo-ETE [2]: 4.85
- 13(14)-EpDPE [2]: <LOD
- 13,14-DiHDPE [2]: 0.22
- 13-HODE [2]: 80.31
- 13-HOTrE [2]: 4.84
- 13-oxo-ODE [2]: 6.02
- 14(15)-EpETE [2]: <LOD
- 14(15)-EpETrE [2]: 0.11
- 14,15-DiHETrE [2]: 3.44
- 15(16)-EpODE [2]: 36.18
- 15,16-DiHODE [2]: 74.86
- 15-HEPE [2]: <LOD
- 15-HETE [2]: 0.58
- 15-HETrE [2]: 0.39
- 15-oxo-ETE [2]: 0.15
- 16(17)-EpDPE [2]: <LOD
- 16,17-DiHDPE [2]: 0.63
- 17(18)-EpETE [2]: <LOD
- 17,18-DiHETE [2]: 3.51
- 17-HDoHE [2]: 0.47
- 19(20)-EpDPE [2]: 0.29
- 19,20-DiHDPE [2]: 4.63
- 20-HETE [2]: 0.35
- EKODE [2]: 0.67
- LTB4 [2]: <LOD
- PGD2 [2]: 0.04
- PGE2 [2]: 0.0328
- PGF2a [2]: 0.19
- Resolvin D1 [2]: <LOD
- Resolvin D2 [2]: <LOD
- TXB2 [2]: 0.22
- 14,15-DiHETE [2]: 0.2458
- 5(6)-EpETrE [3]: <LOD
- 5,6-DiHETrE [3]: <LOD
- 5-HEPE [3]: 0.03
- 5-HETE [3]: 0.2075
- 5-oxo-ETE [3]: 0.12
- 7(8)-EpDPE [3]: <LOD
- 7,8-DiHDPE [3]: <LOD
- 8(9)-EpETE [3]: <LOD
